# In US9283202B2, “Stable peracid-containing compositions” (CHD Bioscience, Inc., priority 2012, dated 2016):
# Assay: active ingredient concentration over time in 50% ethanol solution (pullulan precipitating agent)
# Type: physicochemical
# Conditions: 50% ethanol solution in buffer, 25 minutes, one data point every five minutes (FIG. 7)
# Method: FIGS. 6-8 show examples of removing pullulan by precipitation using an alcohol or PEG. As an alternative, pullulan can be removed by precipitation using either an alcohol or polyethylene glycol (PEG). In this approach, the precipitating agent is added to the solution and causes pullulan to form a white solid. The active ingredient is not affected by this addition. The solid can be stopped from getting into the solution by either an appropriate container or a simple filter. […] In FIG. 7, a 50% ethanol solution was prepared in buffer. The active ingredient concentration was measured over time for 25 minutes (one data point every five minutes). […] Furthermore, measurements of the same concentration in straight buffer yield the same measured concentration of active ingredient.
compound,measurement,value
"CC(=O)C(=O)OO [active ingredient, peroxy pyruvic acid]",measured concentration of active ingredient over time,no statistical difference
